Laboratory results: patent US20170253917A1, “METHODS AND SYSTEMS FOR DETERMINING ANTIBIOTIC SUSCEPTIBILITY” (priority 2016, published 2017)

Test system: 1496 clinical isolates of E. coli
Experiment: Phenotypic antibiotic susceptibility testing, MicroScan WalkAway plus System, Neg MIC 45 panel
Type: cell-based
Details: for Measured Phenotype Susceptible (%) / Measured Phenotype Resistant (%): share of the 1496 E. coli isolates; for Measured Phenotype Resistant (%): resistant or intermediate combined as resistant; for Phenotype of the E. coli isolates in words: 1496 E. coli isolates
Protocol: Phenotypic antibiotic susceptibility testing was performed and an antibiotic response of resistant, intermediate or susceptible was assigned to each E. coli isolate per antibiotic based on minimal inhibitory concentrations as described in the MicroScan product insert. Phenotypic antibiotic susceptibility testing was performed on the 1496 E. coli isolates using the MicroScan WalkAway plus System and the Neg MIC 45 panel (P/N B1017-424) which covers 25 antibiotics. Cryopreserved isolates were sub-cultured twice on blood agar plates prior to antibiotic susceptibility testing. The MicroScan instrument was used to assign an antibiotic response of resistant, intermediate or susceptible for each isolate per antibiotic based on minimal inhibitory concentrations as described in the MicroScan product insert. Assignments of resistant or intermediate were combined and reported as resistant in this example. Assignments of susceptible are reported as such in this example.

Molecule | Measured Phenotype Susceptible (%) | Measured Phenotype Resistant (%) | Phenotype of the E. coli isolates in words
Ampicillin/Sulbactam | 16% | 84% | –
NC[C@H]1O[C@H](O[C@H]2[C@H](O)[C@@H](O[C@H]3O[C@H](CO)[C@@H](O)[C@H](N)[C@H]3O)[C@H](N)C[C@@H]2N)[C@H](N)C[C@@H]1O [Tobramycin] | 45% | 55% | –
Cc1nnc(SCC2=C(C(=O)O)N3C(=O)[C@@H](NC(=O)Cn4cnnn4)[C@H]3SC2)s1 [Cefazolin] | 5% | 95% | the vast majority of isolates exhibited phenotypic resistance
C[C@@H](O)[C@H]1C(=O)N2C(C(=O)O)=C(S[C@@H]3CN[C@H](C(=O)Nc4cccc(C(=O)O)c4)C3)[C@H](C)[C@H]12 [Ertapenem] | 98% | 4% | the vast majority of isolates exhibited phenotypic susceptibility
CO/N=C(\C(=O)N[C@@H]1C(=O)N2C(C(=O)O)=C(COC(N)=O)CS[C@H]12)c1ccco1 [Cefuroxime] | 7% | 93% | –
Trimethoprim/Sulfamethoxazole | 36% | 64% | –
CO[C@@]1(NC(=O)Cc2cccs2)C(=O)N2C(C(=O)O)=C(COC(N)=O)CS[C@@H]21 [Cefoxitin] | 79% | 21% | –
C[C@H]1[C@H](NC(=O)/C(=N\OC(C)(C)C(=O)O)c2csc(N)n2)C(=O)N1S(=O)(=O)O [Aztreonam] | 9% | 91% | –
Gentamicin | 61% | 39% | –
CCN1CCN(C(=O)N[C@@H](C(=O)N[C@@H]2C(=O)N3[C@@H]2SC(C)(C)[C@@H]3C(=O)O)c2ccccc2)C(=O)C1=O [Piperacillin] | 4% | 96% | the vast majority of isolates exhibited phenotypic resistance
CC1(C)S[C@@H]2[C@H](NC(=O)[C@H](N)c3ccccc3)C(=O)N2[C@H]1C(=O)O [Ampicillin] | 3% | 97% | the vast majority of isolates exhibited phenotypic resistance
C[C@@H](O)[C@H]1C(=O)N2C(C(=O)O)=C(SCCN=CN)C[C@H]12 [Imipenem] | 97% | 3% | –
Amoxicillin/K Clavulanate | 43% | 57% | –
CC(C)(O/N=C(\C(=O)N[C@@H]1C(=O)N2C(C(=O)[O-])=C(C[n+]3ccccc3)CS[C@H]12)c1csc(N)n1)C(=O)O [Ceftazidime] | 9% | 91% | –
CO/N=C(\C(=O)N[C@@H]1C(=O)N2C(C(=O)O)=C(CSc3nc(=O)c(=O)[nH]n3C)CS[C@H]12)c1csc(N)n1 [Ceftriaxone] | 8% | 92% | –
CN(C)[C@@H]1C(O)=C(C(N)=O)C(=O)[C@@]2(O)C(O)=C3C(=O)c4c(O)cccc4[C@@](C)(O)[C@H]3C[C@@H]12 [Tetracycline] | 32% | 68% | –
Ticarcillin/K Clavulanate | 56% | 44% | –
CN(C)c1cc(NC(=O)CNC(C)(C)C)c(O)c2c1C[C@H]1C[C@H]3[C@H](N(C)C)C(O)=C(C(N)=O)C(=O)[C@@]3(O)C(O)=C1C2=O [Tigecycline] | 99.6% | 0.4% | the vast majority of isolates exhibited phenotypic susceptibility
C[C@H]1COc2c(N3CCN(C)CC3)c(F)cc3c(=O)c(C(=O)O)cn1c23 [Levofloxacin] | 19% | 81% | –
CO/N=C(\C(=O)N[C@@H]1C(=O)N2C(C(=O)O)=C(COC(C)=O)CS[C@H]12)c1csc(N)n1 [Cefotaxime] | 9% | 91% | –
C[C@@H](O)[C@H]1C(=O)N2C(C(=O)O)=C(S[C@@H]3CN[C@H](C(=O)N(C)C)C3)[C@H](C)[C@H]12 [Meropenem] | 98% | 2% | the vast majority of isolates exhibited phenotypic susceptibility
NCC[C@H](O)C(=O)N[C@@H]1C[C@H](N)[C@@H](O[C@H]2O[C@H](CN)[C@@H](O)[C@H](O)[C@H]2O)[C@H](O)[C@H]1O[C@H]1O[C@H](CO)[C@@H](O)[C@H](N)[C@H]1O [Amikacin] | 94% | 6% | the vast majority of isolates exhibited phenotypic susceptibility
CO/N=C(\C(=O)N[C@@H]1C(=O)N2C(C(=O)[O-])=C(C[N+]3(C)CCCC3)CS[C@H]12)c1csc(N)n1 [Cefepime] | 10% | 90% | –
Piperacillin/Tazobactam | 84% | 16% | –
